Laboratory results: PubChem BioAssay (NCI)
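Values below derive from 48-hour exposures of cells grown in 96-well plates, with endpoints linearly interpolated between the two concentrations bracketing the appropriate inhibition level. The concentration for full growth arrest is given as TGI.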

Key:
Assay in all cases: growth of human tumour cells (NCI), 48 h
786-0 renal = system: 786-0 renal
A498 renal = system: A498 renal
A549 NSCLC = system: A549 NSCLC
ACHN renal = system: ACHN renal
CAKI-1 renal = system: CAKI-1 renal
CCRF-CEM leukemia = system: CCRF-CEM leukemia
COLO 205 colon = system: COLO 205 colon
DLD-1 colon = system: DLD-1 colon
DMS 114 small cell lung = system: DMS 114 small cell lung
DMS 273 small cell lung = system: DMS 273 small cell lung
EKVX NSCLC = system: EKVX NSCLC
HCC-2998 colon = system: HCC-2998 colon
HCT-116 colon = system: HCT-116 colon
HCT-15 colon = system: HCT-15 colon
HL-60(TB) leukemia = system: HL-60(TB) leukemia
HOP-18 NSCLC = system: HOP-18 NSCLC
HOP-62 NSCLC = system: HOP-62 NSCLC
HOP-92 NSCLC = system: HOP-92 NSCLC
IGROV1 ovarian = system: IGROV1 ovarian
K-562 leukemia = system: K-562 leukemia
KM12 colon = system: KM12 colon
KM20L2 colon = system: KM20L2 colon
LOX IMVI melanoma = system: LOX IMVI melanoma
LXFL 529 NSCLC = system: LXFL 529 NSCLC
M14 melanoma = system: M14 melanoma
M19-MEL melanoma = system: M19-MEL melanoma
MALME-3M melanoma = system: MALME-3M melanoma
MOLT-4 leukemia = system: MOLT-4 leukemia
NCI-H226 lung = system: NCI-H226 lung
NCI-H23 lung = system: NCI-H23 lung
NCI-H460 lung = system: NCI-H460 lung
NCI-H522 lung = system: NCI-H522 lung
OVCAR-3 ovarian = system: OVCAR-3 ovarian
OVCAR-4 ovarian = system: OVCAR-4 ovarian
OVCAR-5 ovarian = system: OVCAR-5 ovarian
OVCAR-8 ovarian = system: OVCAR-8 ovarian
RPMI-8226 leukemia = system: RPMI-8226 leukemia
SF-268 CNS = system: SF-268 CNS
SF-539 CNS = system: SF-539 CNS
SK-MEL-2 melanoma = system: SK-MEL-2 melanoma
SK-MEL-5 melanoma = system: SK-MEL-5 melanoma
SK-OV-3 ovarian = system: SK-OV-3 ovarian
SN12C renal = system: SN12C renal
SNB-19 CNS = system: SNB-19 CNS
SNB-75 CNS = system: SNB-75 CNS
SR leukemia = system: SR leukemia
SW-620 colon = system: SW-620 colon
U251 CNS = system: U251 CNS
UACC-257 melanoma = system: UACC-257 melanoma
UACC-62 melanoma = system: UACC-62 melanoma
UO-31 renal = system: UO-31 renal
XF 498 CNS = system: XF 498 CNS
HT29 colon = system: HT29 colon
SF-295 CNS = system: SF-295 CNS
SK-MEL-28 melanoma = system: SK-MEL-28 melanoma
TK-10 renal = system: TK-10 renal
RXF 393 renal = system: RXF 393 renal
SNB-78 CNS = system: SNB-78 CNS

CC(=O)Nc1ccc(C(=O)NN2C(=O)C(Cl)C2c2cc(Br)cc(Br)c2O)cc1 (stereo not drawn)
TGI (786-0 renal): > 100 µM | TGI (A498 renal): > 100 µM | TGI (A549 NSCLC): > 100 µM | TGI (ACHN renal): > 100 µM | TGI (CAKI-1 renal): > 100 µM | TGI (CCRF-CEM leukemia): > 100 µM | TGI (COLO 205 colon): > 100 µM | TGI (DLD-1 colon): > 100 µM | TGI (DMS 114 small cell lung): > 100 µM | TGI (DMS 273 small cell lung): > 100 µM | TGI (EKVX NSCLC): > 100 µM | TGI (HCC-2998 colon): > 100 µM | TGI (HCT-116 colon): > 100 µM | TGI (HCT-15 colon): > 100 µM | TGI (HL-60(TB) leukemia): > 100 µM | TGI (HOP-18 NSCLC): > 100 µM | TGI (HOP-62 NSCLC): > 100 µM | TGI (HOP-92 NSCLC): > 100 µM | TGI (IGROV1 ovarian): > 100 µM | TGI (K-562 leukemia): > 100 µM | TGI (KM12 colon): > 100 µM | TGI (KM20L2 colon): > 100 µM | TGI (LOX IMVI melanoma): > 100 µM | TGI (LXFL 529 NSCLC): > 100 µM | TGI (M14 melanoma): > 100 µM | TGI (M19-MEL melanoma): > 100 µM | TGI (MALME-3M melanoma): > 100 µM | TGI (MOLT-4 leukemia): > 100 µM | TGI (NCI-H226 lung): > 100 µM | TGI (NCI-H23 lung): > 100 µM | TGI (NCI-H460 lung): > 100 µM | TGI (NCI-H522 lung): > 100 µM | TGI (OVCAR-3 ovarian): > 100 µM | TGI (OVCAR-4 ovarian): > 100 µM | TGI (OVCAR-5 ovarian): > 100 µM | TGI (OVCAR-8 ovarian): > 100 µM | TGI (RPMI-8226 leukemia): > 100 µM | TGI (SF-268 CNS): > 100 µM | TGI (SF-539 CNS): > 100 µM | TGI (SK-MEL-2 melanoma): > 100 µM | TGI (SK-MEL-5 melanoma): > 100 µM | TGI (SK-OV-3 ovarian): > 100 µM | TGI (SN12C renal): > 100 µM | TGI (SNB-19 CNS): > 100 µM | TGI (SNB-75 CNS): > 100 µM | TGI (SR leukemia): > 100 µM | TGI (SW-620 colon): > 100 µM | TGI (U251 CNS): > 100 µM | TGI (UACC-257 melanoma): > 100 µM | TGI (UACC-62 melanoma): > 100 µM | TGI (UO-31 renal): > 100 µM | TGI (XF 498 CNS): > 100 µM

CN(C)N=Nc1cn[nH]c1C(N)=O
TGI (786-0 renal): > 100 µM | TGI (A498 renal): > 100 µM | TGI (A549 NSCLC): > 100 µM | TGI (ACHN renal): > 100 µM | TGI (CAKI-1 renal): > 100 µM | TGI (CCRF-CEM leukemia): > 100 µM | TGI (COLO 205 colon): > 100 µM | TGI (DLD-1 colon): > 100 µM | TGI (DMS 114 small cell lung): > 100 µM | TGI (DMS 273 small cell lung): > 100 µM | TGI (EKVX NSCLC): > 100 µM | TGI (HCC-2998 colon): > 100 µM | TGI (HCT-116 colon): > 100 µM | TGI (HCT-15 colon): > 100 µM | TGI (HL-60(TB) leukemia): > 100 µM | TGI (HOP-18 NSCLC): > 100 µM | TGI (HOP-62 NSCLC): > 100 µM | TGI (HOP-92 NSCLC): > 100 µM | TGI (HT29 colon): > 100 µM | TGI (IGROV1 ovarian): > 100 µM | TGI (K-562 leukemia): > 100 µM | TGI (KM12 colon): > 100 µM | TGI (KM20L2 colon): > 100 µM | TGI (LOX IMVI melanoma): > 100 µM | TGI (LXFL 529 NSCLC): > 100 µM | TGI (M14 melanoma): > 100 µM | TGI (M19-MEL melanoma): > 100 µM | TGI (MALME-3M melanoma): > 100 µM | TGI (MOLT-4 leukemia): > 100 µM | TGI (NCI-H226 lung): > 100 µM | TGI (NCI-H23 lung): > 100 µM | TGI (NCI-H460 lung): > 100 µM | TGI (NCI-H522 lung): > 100 µM | TGI (OVCAR-3 ovarian): > 100 µM | TGI (OVCAR-4 ovarian): > 100 µM | TGI (OVCAR-5 ovarian): > 100 µM | TGI (OVCAR-8 ovarian): > 100 µM | TGI (RPMI-8226 leukemia): > 100 µM | TGI (SF-268 CNS): > 100 µM | TGI (SF-295 CNS): > 100 µM | TGI (SF-539 CNS): > 100 µM | TGI (SK-MEL-2 melanoma): > 100 µM | TGI (SK-MEL-28 melanoma): > 100 µM | TGI (SK-MEL-5 melanoma): > 100 µM | TGI (SK-OV-3 ovarian): > 100 µM | TGI (SN12C renal): > 100 µM | TGI (SNB-19 CNS): > 100 µM | TGI (SNB-75 CNS): > 100 µM | TGI (SR leukemia): > 100 µM | TGI (SW-620 colon): > 100 µM | TGI (TK-10 renal): > 100 µM | TGI (U251 CNS): > 100 µM | TGI (UACC-257 melanoma): > 100 µM | TGI (UACC-62 melanoma): 93.3 µM | TGI (XF 498 CNS): > 100 µM

COc1ccc(-c2csc(=[N+]3CCCCC3)s2)cc1
TGI (786-0 renal): > 100 µM | TGI (A549 NSCLC): > 100 µM | TGI (ACHN renal): > 100 µM | TGI (CAKI-1 renal): 8.42 µM | TGI (CCRF-CEM leukemia): 14.6 µM | TGI (COLO 205 colon): 2.85 µM | TGI (DLD-1 colon): > 100 µM | TGI (DMS 273 small cell lung): 13.3 µM | TGI (EKVX NSCLC): > 100 µM | TGI (HCC-2998 colon): > 100 µM | TGI (HCT-116 colon): 27.8 µM | TGI (HCT-15 colon): > 100 µM | TGI (HL-60(TB) leukemia): 10.2 µM | TGI (HOP-18 NSCLC): 83 µM | TGI (HOP-62 NSCLC): 8.06 µM | TGI (HOP-92 NSCLC): 7.73 µM | TGI (HT29 colon): 29.9 µM | TGI (IGROV1 ovarian): > 100 µM | TGI (K-562 leukemia): 24.2 µM | TGI (KM12 colon): 18.1 µM | TGI (KM20L2 colon): 24 µM | TGI (LOX IMVI melanoma): > 100 µM | TGI (LXFL 529 NSCLC): 26.9 µM | TGI (M14 melanoma): > 100 µM | TGI (M19-MEL melanoma): 11.4 µM | TGI (MALME-3M melanoma): 13.1 µM | TGI (MOLT-4 leukemia): 10.3 µM | TGI (NCI-H226 lung): 9.37 µM | TGI (NCI-H23 lung): 6.58 µM | TGI (NCI-H460 lung): 44.8 µM | TGI (NCI-H522 lung): 5.17 µM | TGI (OVCAR-3 ovarian): 31.6 µM | TGI (OVCAR-4 ovarian): 36.1 µM | TGI (OVCAR-5 ovarian): 76.8 µM | TGI (OVCAR-8 ovarian): > 100 µM | TGI (RPMI-8226 leukemia): 8.36 µM | TGI (RXF 393 renal): 56.5 µM | TGI (SF-268 CNS): 23.5 µM | TGI (SF-295 CNS): 8.73 µM | TGI (SF-539 CNS): 95.3 µM | TGI (SK-MEL-2 melanoma): 16.6 µM | TGI (SK-MEL-28 melanoma): 29.7 µM | TGI (SK-MEL-5 melanoma): 4.76 µM | TGI (SK-OV-3 ovarian): 17.6 µM | TGI (SN12C renal): > 100 µM | TGI (SNB-19 CNS): > 100 µM | TGI (SNB-75 CNS): 8.22 µM | TGI (SNB-78 CNS): > 100 µM | TGI (SR leukemia): 11.2 µM | TGI (SW-620 colon): > 100 µM | TGI (TK-10 renal): > 100 µM | TGI (U251 CNS): > 100 µM | TGI (UACC-257 melanoma): 26.6 µM | TGI (UACC-62 melanoma): 24.1 µM | TGI (UO-31 renal): > 100 µM | TGI (XF 498 CNS): 17.8 µM
